Consider 22 compounds from ChEMBL document CHEMBL2150925, “The Synthesis and Antimicrobial Activity of Heterocyclic Derivatives of Totarol” (ACS Med Chem Lett, 2012).

Values after ≈ are worked out from the molar mass of the structure shown. Active and inactive are the calls of the source. The calls are words filed in the database; no cut-off is given here.

The subject of assay [1] is Bacillus subtilis. Briefly: Antibacterial activity against Bacillus subtilis 168 after 16 hrs. In kind it is functional. The following applies: subsp. subtilis str. 168, 16 h.
Assay [2] deals with Bacillus subtilis. Briefly: Ratio of totarol MIC to compound MIC for Bacillus subtilis 168. The class given is functional, subsp. subtilis str. 168.
Assay [3] addresses T1, Cell division protein FtsZ (Bacillus subtilis (strain 168)) (UniProt P17865).
T1 sequence (whole entry): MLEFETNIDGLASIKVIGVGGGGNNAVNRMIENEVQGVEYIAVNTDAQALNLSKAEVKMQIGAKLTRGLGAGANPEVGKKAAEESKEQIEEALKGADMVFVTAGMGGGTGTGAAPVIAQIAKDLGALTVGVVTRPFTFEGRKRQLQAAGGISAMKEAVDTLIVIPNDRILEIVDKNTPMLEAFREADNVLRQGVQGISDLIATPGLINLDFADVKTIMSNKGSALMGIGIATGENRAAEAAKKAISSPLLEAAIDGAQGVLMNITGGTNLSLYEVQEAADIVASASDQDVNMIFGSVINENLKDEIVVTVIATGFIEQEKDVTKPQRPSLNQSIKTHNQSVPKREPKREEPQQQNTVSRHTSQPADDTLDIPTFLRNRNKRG
Briefly: Inhibition of Bacillus subtilis FtsZ GTPase activity up to 64 uM by enzyme-coupled assay.

In assay [4] the target is T2, Cell division protein FtsZ (Bacillus subtilis (strain 168), UniProt P17865).
T2 sequence (P17865 whole entry): T1 sequence (whole entry)
Briefly: Inhibition of Bacillus subtilis FtsZ GTPase activity by enzyme-coupled assay.

The target in assay [5] is T1, Cell division protein FtsZ (Bacillus subtilis (strain 168)). Briefly: Inhibition of Bacillus subtilis FtsZ GTPase activity by enzyme-coupled assay in presence of 0.01% triton X-100.

As usually defined, the MIC is the lowest concentration that inhibits growth of the organism. The low end stands for inhibition by little substance, the high end for a need for much substance. As to `COc1ccc2c(c1C(C)C)CC[C@H]1C(C)(C)C(=O)/C(=C\O)C[C@]21C`, the MIC in assay [1] is greater than 160 µM.

Compound `CC(C)c1c(O)ccc2c1CC[C@H]1C(C)(C)c3[nH]ncc3C[C@]21C` came in with an MIC in assay [1] greater than 160 µM.

Turning to `CC(C)c1c(O)ccc2c1CC[C@H]1C(C)(C)c3c(cnn3-c3ccccc3)C[C@]21C`, in assay [1], the MIC is greater than 160 µM.

`CC(C)c1c(O)ccc2c1CC[C@H]1C(C)(C)c3oncc3C[C@]21C`: in assay [1], the MIC was 40 µM (≈ 13 µg/mL).

`CC(C)c1c(O)ccc2c1CC[C@H]1C(C)(C)c3[nH]c4ccccc4c3C[C@]21C`: in assay [2], the Ratio stood at 4. Further, in assay [1], the lowest concentration to inhibit growth (MIC) was 2.5 µM (≈ 0.934 µg/mL). Besides, the inhibition entry in assay [3] is “inactive”.

Compound `CC(C)c1c(O)ccc2c1CC[C@H]1C(C)(C)/C(=N/O)CC[C@]21C` came in with a minimal inhibitory concentration (MIC) in assay [1] greater than 160 µM.

`CC(C)c1c(O)ccc2c1CC[C@H]1C(C)(C)NC(=O)CC[C@]21C` returned a minimal inhibitory concentration (MIC) in assay [1] greater than 160 µM.

For `CC(C)c1c(O)ccc2c1CC[C@H]1C(C)(C)C(N)CC[C@]21C` (some centres not stated), the MIC in assay [1] is greater than 160 µM.

In turn, `CC(C)c1c(O)ccc2c1NC[C@H]1C(C)(C)CCC[C@]21C` yielded a minimum inhibitory concentration (MIC) in assay [1] of 20 µM (≈ 5.75 µg/mL).

As for `CC(=O)N1C[C@H]2C(C)(C)CCC[C@]2(C)c2ccc(O)c(C(C)C)c21`, the MIC in assay [1] is greater than 256 µM.

`COc1ccc2c(c1C(C)C)CC[C@H]1C(C)(C)c3[nH]c4ccc(C#N)cc4c3C[C@]21C` (racemic): the minimum inhibitory concentration (MIC) in assay [1] was greater than 100 µM.

In assay [1], `CC(C)c1c(O)ccc2c1CC[C@H]1C(C)(C)c3[nH]c4c(Cl)cc(Cl)cc4c3C[C@]21C` (racemic) registered an MIC of 0.78 µM (≈ 0.345 µg/mL).

In turn, `CC(C)c1c(O)ccc2c1CC[C@H]1C(C)(C)c3[nH]c4ccc(C(F)(F)F)cc4c3C[C@]21C` (racemic) returned a minimal inhibitory concentration (MIC) in assay [1] of 0.78 µM (≈ 0.344 µg/mL).

Take `CC(C)c1c(O)ccc2c1CC[C@H]1C(C)(C)c3[nH]c4ccc(C#N)cc4c3C[C@]21C` (racemic): the MIC in assay [1] is 0.78 µM (≈ 0.311 µg/mL). In addition, in assay [3], the inhibition result was “inactive”.

Consider `CC(C)c1c(O)ccc2c1CC[C@H]1C(C)(C)c3[nH]c4ccc(F)cc4c3C[C@]21C` (racemic), for which the MIC in assay [1] turned out to be 80 µM (≈ 31.3 µg/mL).

As for `CCc1ccc2[nH]c3c(c2c1)C[C@]1(C)c2ccc(O)c(C(C)C)c2CC[C@H]1C3(C)C` (racemic), the lowest concentration to inhibit growth in assay [1] (MIC) was 2.5 µM (≈ 1 µg/mL).

Turning to `CC(C)c1c(O)ccc2c1CC[C@H]1C(C)(C)c3[nH]c4ccc(S(N)(=O)=O)cc4c3C[C@]21C` (racemic), in assay [1], the MIC turned out to be 5.5 µM (≈ 2.49 µg/mL).

Consider `Cc1ccc2c3c([nH]c2c1C)C(C)(C)[C@@H]1CCc2c(ccc(O)c2C(C)C)[C@@]1(C)C3` (racemic), for which the MIC in assay [1] stood at 11 µM (≈ 4.42 µg/mL).

In assay [1], `CCc1cccc2c3c([nH]c12)C(C)(C)[C@@H]1CCc2c(ccc(O)c2C(C)C)[C@@]1(C)C3` (racemic) came in with a minimum inhibitory concentration (MIC) of 1 µM (≈ 0.402 µg/mL).

Turning to `CC(C)c1c(O)ccc2c1CC[C@H]1C(C)(C)c3[nH]c4c(O)cccc4c3C[C@]21C` (racemic), in assay [1], the minimal inhibitory concentration (MIC) was 6.3 µM (≈ 2.45 µg/mL).

A word on the IC50: it is the concentration that gives 50% inhibition. Low values mean greater potency in that assay, high ones weaker potency in that assay. In assay [4], `CC(C)c1c(O)ccc2c1CC[C@H]1C(C)(C)CCC[C@]21C` [TOTAROL] showed a concentration for half-maximal inhibition (IC50) of 24 µM. This compound also registered a minimal inhibitory concentration (MIC) in assay [1] of 2.5 µM (≈ 0.716 µg/mL). The inhibition result in assay [5] was “inactive”.

On to `CN[C@H](CC(C)C)C(=O)N[C@H]1C(=O)N[C@@H](CC(N)=O)C(=O)N[C@H]2C(=O)N[C@H]3C(=O)N[C@H](C(=O)N[C@H](C(=O)O)c4cc(O)cc(O)c4-c4cc3ccc4O)[C@H](O)c3ccc(c(Cl)c3)Oc3cc2cc(c3O[C@@H]2O[C@H](CO)[C@@H](O)[C@H](O)[C@H]2O[C@H]2C[C@](C)(N)[C@H](O)[C@H](C)O2)Oc2ccc(cc2Cl)[C@H]1O` [VANCOMYCIN], for which the minimal inhibitory concentration (MIC) in assay [1] turned out to be 0.63 µM (≈ 0.913 µg/mL).
